Laboratory results reported in the SangsterLogP compilation.

test: method code SF-AS, from DOI: 10.1177/1934578x0700201005; details: pH 7.4

Row | Structure (SMILES) | logD
1 | COc1cccc2oc(-c3ccccc3)cc(=O)c12 | 2.98
2 | COc1c(-c2ccccc2)oc2ccccc2c1=O | 3.18
3 | COc1ccc2oc(-c3ccccc3)cc(=O)c2c1 | 3.22
4 | O=c1cc(-c2ccccc2O)oc2ccccc12 | 3.01
5 | COc1ccc2c(=O)cc(-c3ccccc3)oc2c1O | 2.9
6 | COc1ccccc1-c1cc(=O)c2ccccc2o1 | 3.14
7 | COc1ccc(-c2cc(=O)c3ccccc3o2)cc1 | 3.21
8 | COc1cccc(-c2cc(=O)c3ccccc3o2)c1 | 3.26
9 | O=c1cc(-c2cccc(O)c2)oc2ccccc12 | 3.03
10 | COc1ccc2c(=O)cc(-c3ccccc3)oc2c1 | 3.12
11 | O=c1c(O)c(-c2ccccc2)oc2ccccc12 | 3.52
12 | O=c1cc(-c2ccccc2)oc2c(O)cccc12 | 3.03
13 | O=c1cc(-c2ccccc2)oc2cccc(O)c12 | 3.39
